Read-outs that look alike come from different tables or passages of the source.
Assays:
human neutrophils [1] = assay: Cytoplasmic calcium concentration (Quin2); format: cell-based; conditions: Sphinganine (30 μM) pretreatment
Description: Intracellular calcium was measured by the Quin2 method. Briefly, Quin2/acetoxymethylester (50 μM) was preincubated with 1×10^8cell/ml for 20 min. at 37°, prior to 10-fold dilution and continuation of incubation for an additional 40-60 minutes. Cells were reisolated by centrifugation to remove extracellular fluorophore, and fluorescence measurement and calibration were carried out as described by Tsien et al in J. Cell. Biol. 94, 325-334, 1982, using a Perkin-Elmer MPF-44B fluorescence spectrophotometer. Buffer consisted of 140 mM NaCl, 5 mM KCl, 1 mM Na2 PO4, 5.5 mM glucose, 0.5 mM MgSO4, 20 mM Hepes, and 1 mM CaCl2.

[2] = HL-60 cell growth and viability; format: cell-based, human; conditions: human, hl-60 cells, 24 h; for viability at 24 h, 2.5 µM: 2.5 μM sphinganine; for viability at 24 h, 5 µM: 5 μM sphinganine
Description: (§1) The HL-60 cells (obtained from the American Type Culture Collection, ATCC CCL240) were grown at 37° as a suspension culture in 175 cm^2 Nunc tissue culture flasks (Vangard International, Neptune, N.J.). The cells were subcultured at a density of 0.25×10^6 cells/ml and used between passage numbers 30 and 40.
(§2) Cells were centrifuged at 600 g for 3 min, and added at 1×10^5 cells per well in 12-well culture dishes. Medium, PMA, and long-chain bases (prepared as the 1:1 molar complex with fatty acid-free bovine serum albumin) at the indicated concentrations were added for a total volume of 2.0 ml. After the desired times, the cells in suspension were counted and checked for viability (trypan blue exclusion) with a hemacytometer. The attached cells were quantitated by measuring DNA content according to the method of West et al (Anal. Biochem., 147, 289-295, 1985) and by assaying for acid phosphatase according to the method of Schnyder (J. Exp. Med., 148, 434-445, 1978).

HL-60 cells [3] = assay: HL-60 cell growth and viability; format: cell-based, human
Description: as §1, §2

HL-60 cells [4] = assay: Morphology and marker enzymes (ANA esterase, acid phosphatase) of HL-60 cells on day 3; format: cell-based, human; conditions: 3 days
From the text: Expression of most other signs of HL-60 cell differentiation requires longer time periods after treatment with PMA. For these experiments, the cells were examined on day 3 for adherence and acid phosphatase activity (Table IV) and morphology and the marker enzymes alpha-naptholacetate (ANA) esterase and acid phosphatase (Table V).

neutrophils = assay: Cell association of radiolabeled sphinganine with neutrophils; format: in vitro ADME, human; conditions: 3, 10, 30 μM plus albumin carrier, 2.5×10^6 cells, 5 min
Description: To determine how much inhibitor was actually becoming associated with the cells, radiolabeled sphinganine (3, 10, 30 μM) plus albumin carrier was incubated with neutrophils (2.5×10^6 cells) for 5 min (i.e. a time longer than that needed to achieve inhibition). After washing by centrifugation, the cell-associated radioactivity was measured. Approximately 20% of the added sphinganine became cell-associated. Therefore, because of partitioning between the albumin and the cells, the cellular concentration of sphinganine was considerably less than the total.

HL-60 cells [5] = assay: Acid phosphatase activities of suspended and attached HL-60 cells; format: cell-based, human
Description: as §2

human neutrophils [6] = assay: Superoxide production by neutrophils (cytochrome c reduction); format: cell-based; conditions: Neutrophil, approximately 5×10^5 cells/ml, all activators, read-out: concentration for 50% inhibition of superoxide production
Description: Superoxide production by cells was quantitated from superoxide-mediated reduction of cytochrome c, monitored as an increase in absorbance at 550 nm and an extinction coefficient at 21,000 M^-1 cm^-1. Measurements were carried out at 37° C. using approximately 5×10^5 neutrophils per ml, stirred continuously. The cells were allowed to equilibrate several minutes prior to the addition of effectors. Conditions for individual experiments are described in figure legends and tables. Controls utilizing added superoxide dismutase verified that the cytochrome c reduction was mediated by superoxide.

[7] = 8 nM PMA, read-out: Percent viability of suspended cells
[8] = No PMA, read-out: Percent viability of suspended cells
[9] = 8 nM PMA, 1 μM sphinganine, 24 h
[10] = 8 nM PMA, 1 μM sphinganine, 72 h
[11] = 8 nM PMA, 2.5 μM sphinganine, 24 h
[12] = 8 nM PMA, 2.5 μM sphinganine, 72 h
[13] = 8 nM PMA, 5 μM sphinganine, 24 h
[14] = 8 nM PMA, 5 μM sphinganine, 72 h
[15] = No PMA, 2.5 μM sphinganine, 24 h
[16] = No PMA, 2.5 μM sphinganine, 72 h

## CCCCCCCCCCCCCCC[C@@H](O)[C@@H](N)CO (relative stereo) [Sphinganine, erythro-dihydrosphingosine]
Human neutrophils [1]
  Calcium, Resting: 0.20 ± 0.02 µM
Human neutrophils [1]; 1 μM FMLP
  Calcium, FMLP-Peak: 0.66 ± 0.14 µM
[2]; 8 nM PMA + 1 μM sphinganine, read-out: % Viability
  viability at 24 h, 1 µM: 93%
[2]; 8 nM PMA, 1 μM sphinganine, read-out: Percent viability of suspended cells
  viability at 24 h, 1 µM: 87%
[2]; [7]
  viability at 24 h, 2.5 µM: 94%
  viability at 24 h, 5 µM: 80%
[2]; 1 μM sphinganine, no PMA, read-out: % Viability
  viability at 24 h, 1 µM: 95%
[2]; No PMA, 1 μM sphinganine, read-out: Percent viability of suspended cells
  viability at 24 h, 1 µM: 90%
[2]; [8]
  viability at 24 h, 2.5 µM: 98%
  viability at 24 h, 5 µM: 87%
HL-60 cells [3]; 1 μM sphinganine, first 24 h
  HL-60 cell growth (doubling): not changed
HL-60 cells [3]; 5 μM sphinganine, second day
  HL-60 cytotoxicity: significant cell death
HL-60 cells [3]; 1 and 2.5 μM sphinganine, second day
  HL-60 cell growth: inhibited growth without cytotoxicity
HL-60 cells [3]; 2.5 and 5 μM sphinganine, first 24 h
  HL-60 cell growth: limited growth
HL-60 cells [4]; 8 nM PMA, adherent cells, 1 μM sphinganine
  Acid phosphatase: 0.64 nmol/h/105 cells
HL-60 cells [4]; 8 nM PMA, adherent cells, 2.5 μM sphinganine
  Acid phosphatase: 0.60 nmol/h/105 cells
HL-60 cells [4]; 8 nM PMA, adherent cells, 5 μM sphinganine
  Acid phosphatase: 0.64 nmol/h/105 cells
HL-60 cells [4]; 8 nM PMA, suspended cells, 1 μM sphinganine
  Acid phosphatase: 0.19 nmol/h/105 cells
HL-60 cells [4]; 8 nM PMA, suspended cells, 2.5 μM sphinganine
  Acid phosphatase: 0.12 nmol/h/105 cells
HL-60 cells [4]; 8 nM PMA, suspended cells, 5 μM sphinganine
  Acid phosphatase: 0.06 nmol/h/105 cells
HL-60 cells [4]; No PMA, suspended cells, 1 μM sphinganine
  Acid phosphatase: 0.25 nmol/h/105 cells
HL-60 cells [4]; No PMA, suspended cells, 2.5 μM sphinganine
  Acid phosphatase: 0.22 nmol/h/105 cells
HL-60 cells [4]; No PMA, suspended cells, 5 μM sphinganine
  Acid phosphatase: 0.16 nmol/h/105 cells
neutrophils
  added sphinganine that became cell-associated: Approximately 20%
HL-60 cells [5]; [9]
  Acid phosphatase activity, Adherent: 0.44 ± 0.11 nmol/h/dish
  Acid phosphatase activity, Suspended: 0.22 ± 0.07 nmol/h/dish
  Adherence (% of total): 67 % of total
HL-60 cells [5]; [10]
  Acid phosphatase activity, Adherent: 2.95 ± 0.62 nmol/h/dish
  Acid phosphatase activity, Adherent (%): 98%
  Acid phosphatase activity, Suspended: 0.05 ± 0.01 nmol/h/dish
HL-60 cells [5]; [11]
  Acid phosphatase activity, Adherent: 0.30 ± 0.04 nmol/h/dish
  Acid phosphatase activity, Suspended: 0.49 ± 0.28 nmol/h/dish
  Adherence (% of total): 38 % of total
HL-60 cells [5]; [12]
  Acid phosphatase activity, Adherent: 3.10 ± 0.30 nmol/h/dish
  Acid phosphatase activity, Adherent (%): 98%
  Acid phosphatase activity, Suspended: 0.06 nmol/h/dish
HL-60 cells [5]; [13]
  Acid phosphatase activity, Adherent: 0.14 ± 0.04 nmol/h/dish
  Adherence (% of total): 21 % of total
HL-60 cells [5]; [14]
  Acid phosphatase activity, Adherent: 0.82 ± 0.38 nmol/h/dish
  Acid phosphatase activity, Adherent (%): 87%
  Acid phosphatase activity, Suspended: 0.12 ± 0.08 nmol/h/dish
HL-60 cells [5]; No PMA, 1 μM sphinganine, 24 h
  Acid phosphatase activity, Adherent: 0.06 ± 0.03 nmol/h/dish
  Acid phosphatase activity, Suspended: 1.53 ± 0.01 nmol/h/dish
  Adherence (% of total): 4 % of total
HL-60 cells [5]; No PMA, 1 μM sphinganine, 72 h
  Acid phosphatase activity, Adherent: 0.05 ± 0.03 nmol/h/dish
  Acid phosphatase activity, Adherent (%): 2%
  Acid phosphatase activity, Suspended: 2.77 ± 0.25 nmol/h/dish
HL-60 cells [5]; [15]
  Acid phosphatase activity, Adherent: 0.06 ± 0.02 nmol/h/dish
  Acid phosphatase activity, Suspended: 1.25 ± 0.16 nmol/h/dish
  Adherence (% of total): 5 % of total
HL-60 cells [5]; [16]
  Acid phosphatase activity, Adherent: 0.05 ± 0.02 nmol/h/dish
  Acid phosphatase activity, Adherent (%): 2%
  Acid phosphatase activity, Suspended: 2.35 ± 0.11 nmol/h/dish
HL-60 cells [5]; No PMA, 5 μM sphinganine, 24 h
  Acid phosphatase activity, Adherent: 0.04 ± 0.01 nmol/h/dish
  Acid phosphatase activity, Suspended: 0.91 ± 0.16 nmol/h/dish
  Adherence (% of total): 4 % of total
HL-60 cells [5]; No PMA, 5 μM sphinganine, 72 h
  Acid phosphatase activity, Adherent: 0.04 ± 0.01 nmol/h/dish
  Acid phosphatase activity, Adherent (%): 14%
  Acid phosphatase activity, Suspended: 0.24 ± 0.01 nmol/h/dish
Human neutrophils [6]
  IC50: ~1000 nM
